{"source": "patent US20120263732A1", "about": "“CD40 ANTIBODY FORMULATION AND METHODS” (PFIZER INC., priority 2003, published 2012)", "key": {"B cell lymphoma Daudi": {"tested_on": "B cell lymphoma Daudi", "test": "Mortality in systemic Daudi B cell lymphoma model", "type": "in vivo, human tumor in SCID-beige mice", "settings": "Daudi IV; single IP injection; monitored for 58 days", "description": "The ability of an anti-CD40 antibody according to the invention (21.4.1) to delay mortality in a CD40(+) systemic tumor model using a B cell lymphoma was assessed.\nSCID-beige mice were injected IV with the B cell lymphoma Daudi (ATCC CCL-213). 21.4.1 was administered as a single injection (IP) at the time of tumor injection. Mortality was monitored for 58 days."}, "[1]": {"tested_on": "Fc receptors (FcR) on human peripheral blood leukocytes", "test": "125I-antibody binding to Fc receptors on human leukocytes", "settings": "125I-labelled antibody; 4° C., sodium azide; 21.4.1: excess unlabeled human IgG2 competitor, n=5 donors", "description": "The binding of an anti-CD40 antibody (21.4.1) to Fc receptors on human and cynomolgus leukocytes was examined.\nThe binding of 21.4.1 to Fc receptors (FcR) on human or cynomolgus peripheral blood leukocytes was determined by using ^125I-21.4.1 and a human IgG1 control mAb. Human leukocytes from normal donors or cynomolgus leukocytes were isolated from whole blood using plasma gel and washed thoroughly to allow dissociation of receptor-bound serum immunoglobulins. Centrifugation through a sucrose cushion was used to separate cell-bound and free antibodies. Studies were performed at 4° C. in the presence of sodium azide to prevent receptor internalization.\n21.4.1 was tested for specific binding to FcR by using excess unlabeled human IgG2 isotype matched antibody as a competitor. ^125I-21.4.1 specific binding to FcR on human leukocytes (n=5 donors) was −1.0±8.5%, and specific binding to FcR on cynomolgus leukocytes (n=4) was 15±13%. […] The specific binding of the IgG1 control antibody to FcR on human and cynomolgus leukocytes accounted for 56% and 51% of the total bound radioactivity, respectively."}, "cynomolgus B-cells": {"tested_on": "cynomolgus B-cells", "test": "Pharmacodynamics: B-cell surface marker upregulation after IV dosing (flow cytometry)", "type": "in vivo, cynomolgus monkeys", "description": "A CD40 antibody (21.4.1) was administered intravenously at various doses (1 mg/kg n=4, 3 mg/kg n=4, 5 mg/kg n=2 and 10 mg/kg n=2) to cynomolgus monkeys. Heparinized blood was drawn from the monkeys at various time points pre- and postdose. The blood was aliquoted and stained. Data were acquired using a Becton Dickinson FACSCalibur and analyzed with CellQuest software. Results were calculated as fold increases in median fluorescence intensity as compared to pre-dose values."}, "[2]": {"test": "Primate anti-human antibody (PAHA) response", "type": "in vivo, cynomolgus monkeys", "settings": "all monkeys in the 3, 5, and 10 mg/kg dose groups; 14 to 28 days following administration", "description": "The observed dose-dependent clearance may be in part due to the binding of 21.4.1 to CD40 receptors that are widely expressed in normal tissues and the subsequent internalization and elimination of the antibody-receptor complex. Development of primate anti-human antibody (PAHA) response may also contribute to the accelerated clearance in some monkeys. PAHA was evaluated only after individual serum concentrations of 21.4.1 reached the lower limit of quantitation (LLOQ, 0.03 μg/mL) since the presence of 21.4.1 in test serum interferes with the assay for PAHA. Anti-21.4.1 antibodies were detected in all monkeys in the 3, 5, and 10 mg/kg dose groups at 14 to 28 days following administration of the antibody."}, "[3]": {"tested_on": "lymph node cells obtained from cancer patients", "test": "IFNγ producing cells by ELISPOT in lymph node cell cultures stimulated with tumor antigen", "type": "cell-based, human", "settings": "antibody 1 μg/mL (6.7 nM); ELISPOT following restimulation", "description": "Effects of a human anti-CD40 antibody (21.4.1) on lymph node cells obtained from cancer patients stimulated with autologous tumor cells was examined.\nLymph node cells and tumors were collected from patients with renal cell carcinoma, non-small cell lung cancer, transitional cell carcinoma of the bladder, colon cancer, prostate cancer, and head and neck cancer. The lymph node cells were placed into culture together with irradiated collagenase treated tumors (recovered from the same patient) in the presence or absence of 21.4.1 (1 μg/mL; 6.7 nM). Proliferation was assessed using ^3H-thymidine 96 hours later. The number of INFγ producing cells was assessed by ELISPOT, following restimulation."}, "[4]": {"tested_on": "CD40(+) Raji B cell lymphoma", "test": "CD40(+) Raji B cell lymphoma growth in SCID-beige mice", "type": "in vivo, human tumor in SCID-beige mice", "description": "SCID-beige mice were injected subcutaneously with the CD40(+) Raji B cell lymphoma (ATCC CCL-86) (SC) followed by a single dose of 21.4.1 (IP) at the time of tumor injection. Some animals were also injected with human T cells and DC. Tumor growth was assessed on Day 21."}, "[5]": {"tested_on": "unstimulated human whole blood", "test": "Whole-blood cytokine release assay", "method": "An anti-CD40 antibody (21.4.1) was tested for its ability to induce the release of cytokines from unstimulated human whole blood using an in vitro whole blood assay which correlates with induction of antibody-mediated cytokine release in humans. 21.4.1 was tested at 1, 10 and 100 μg/mL, along with a murine anti-human CD3 IgG1 as a positive control that induces cytokine release through an Fc mediated pathway, and LPS as a second positive control that induces cytokines by stimulating macrophages. The donors used included individuals that responded to both the murine antibody and LPS (4 donors), as well as individuals who only responded to the LPS (3 donors). Heparinized whole blood was cultured with 21.4.1 for 5 hours and plasma was collected and analyzed for tumor necrosis factor alpha (TNF-α), interferon gamma (INF-γ) and interleukin-6 (IL-6) by ELISA (using commercially available kits). Cultures were also incubated for 48 hours and analyzed for interleukin-1 beta (IL-1β)."}, "[6]": {"tested_on": "human breast tumor, BT 474", "test": "BT 474 breast tumor growth with human T cells and DC in SCID-beige mice", "type": "in vivo", "description": "SCID-beige mice were challenged with the human breast tumor, BT 474 (ATCC HTB-20), SC, together with human peripheral blood T cells and DC. Animals received a single dose of 21.4.1 (IP) at the time of tumor injection."}}}
{"substance": "21.4.1: human agonist anti-CD40 antibody; amino acid sequences SEQ ID NOs:5-8; hybridoma deposit PTA-3605", "values": [{"measurement": "mortality induced by systemically administered tumor cell line", "setting": "B cell lymphoma Daudi", "result": "prevented mortality"}, {"measurement": "specific binding to FcR on human leukocytes", "setting": "[1]", "result": "−1.0±8.5", "unit": "%"}, {"measurement": "CD23 expression on B-cells, increase vs pre-dose", "setting": "cynomolgus B-cells; 24 hours after dosing, 3 mg/kg and 10 mg/kg IV", "result": "≥ 20", "unit": "fold"}, {"measurement": "dose producing a saturating pharmacodynamic response in cynomolgus B-cells", "setting": "cynomolgus B-cells; IV, MHC Class II and CD23 on CD20+ cells", "result": 1, "unit": "mg/kg"}, {"measurement": "CD71 (transferrin receptor) level", "setting": "cynomolgus B-cells; after IV dosing", "result": "moderate upregulation"}, {"measurement": "CD80 expression", "setting": "cynomolgus B-cells; after IV dosing", "result": "did not change significantly"}, {"measurement": "CD86 costimulatory molecule level", "setting": "cynomolgus B-cells; after IV dosing", "result": "moderate upregulation"}, {"measurement": "upregulation of both surface markers (MHC Class II, CD23) persisted, increase", "setting": "cynomolgus B-cells; while 21.4.1 levels remained above 1 μg/ml", "result": "≥ 2", "unit": "fold"}, {"measurement": "anti-21.4.1 antibodies (PAHA)", "setting": "[2]", "result": "detected"}, {"measurement": "number of IFNγ+ positive T cells", "setting": "[3]", "result": "enhanced"}, {"measurement": "anti-tumor activity against CD40(+) tumors when immune cells were present", "setting": "[4]; Raji", "result": "enhanced"}, {"measurement": "amount necessary to cause a 50% inhibition of tumor growth", "setting": "[4]; Raji co-injected with immune cells (human T cells and DC), single IP dose, Day 21", "result": 0.001, "unit": "mg/kg"}, {"measurement": "amount to cause a 50% inhibition of tumor growth (IC50)", "setting": "[4]; Raji in the absence of immune cells, single IP dose, Day 21", "result": 0.02, "unit": "mg/kg"}, {"measurement": "decrease of the 50% inhibitory amount when immune cells co-injected", "setting": "[4]; Raji, with vs without immune cells", "result": 20, "unit": "fold"}, {"measurement": "IL-6 in plasma", "setting": "[5]; 100 μg/mL, only one donor, 5 hours", "result": 90, "unit": "pg/mL"}, {"measurement": "cytokines in plasma of human blood", "setting": "[5]; 1 or 10 μg/mL 21.4.1, ELISA", "result": "not detected"}, {"measurement": "elevation of INFγ or IL-1β", "setting": "[5]; any of the samples, 1, 10 and 100 μg/mL", "result": "no elevation"}, {"measurement": "induction of TNF-α or IL-6 on re-test", "setting": "[5]; same donor re-tested subsequently", "result": "no detectable induction"}, {"measurement": "amount necessary to cause a 50% reduction in tumor growth", "setting": "[6]; BT 474 with human T cells and DC, single IP dose at tumor injection, Day 53", "result": 0.005, "unit": "mg/kg"}, {"measurement": "growth of BT 474 cells", "setting": "[6]; in the presence of immune cells, single injection", "result": "prevented the growth"}]}
